Assay results as given in PubChem BioAssay AID248 (DTP/NCI, 2004).
Several values for one entry are separate records, joined by “and”; a condition that tells them apart may be missing. Equal values may be shown once. Inconclusive results and toxic doses are left out. Cut-off read from the data, not from the text of the source: active = T/C of 150% or more; inactive = T/C below 125%.

System: L1210 leukemia ip in BDF1 mice, survival T/C
Experiment: NCI In Vivo Anticancer Drug Screen. Data for tumor model L1210 Leukemia (intraperitoneal) in B6D2F1 (BDF1) mice
Conditions: endpoint: mean survival time, higher = longer survival
Outline: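 Ratio derived from survival: compound-dosed mice over vehicle-dosed mice, all bearing a transplantable tumor.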

[1] = dose: 100.0 mg/kg/injection, schedule: Q01DX009 (ip), vehicle: saline with Tween-80
[2] = dose: 200.0 mg/kg/injection, schedule: Q01DX009 (ip), vehicle: saline with Tween-80
[3] = dose: 100.0 mg/kg/injection, schedule: Q01DX001 (ip), vehicle: Klucel (hydroxypropylcellulose) (HPC)
[4] = dose: 100.0 mg/kg/injection, schedule: Q04DX003 (ip), vehicle: saline
[5] = dose: 200.0 mg/kg/injection, schedule: Q01DX001 (ip), vehicle: Klucel (hydroxypropylcellulose) (HPC)
[6] = dose: 200.0 mg/kg/injection, schedule: Q04DX003 (ip), vehicle: saline
[7] = dose: 100.0 mg/kg/injection, schedule: Q01DX009 (ip), vehicle: Klucel (hydroxypropylcellulose) (HPC)
[8] = dose: 200.0 mg/kg/injection, schedule: Q01DX009 (ip), vehicle: Klucel (hydroxypropylcellulose) (HPC)
[9] = dose: 400.0 mg/kg/injection, schedule: Q01DX009 (ip), vehicle: Klucel (hydroxypropylcellulose) (HPC)
[10] = dose: 100.0 mg/kg/injection, schedule: Q01DX001 (ip), vehicle: carboxymethylcellulose (CMC)
[11] = dose: 200.0 mg/kg/injection, schedule: Q01DX001 (ip), vehicle: carboxymethylcellulose (CMC)
[12] = dose: 100.0 mg/kg/injection, schedule: Q04DX003 (ip), vehicle: saline with Tween-80
[13] = dose: 200.0 mg/kg/injection, schedule: Q04DX003 (ip), vehicle: saline with Tween-80
[14] = dose: 400.0 mg/kg/injection, schedule: Q04DX003 (ip), vehicle: saline with Tween-80
[15] = dose: 100.0 mg/kg/injection, schedule: Q04DX003 (ip), vehicle: Klucel (hydroxypropylcellulose) (HPC)
[16] = dose: 200.0 mg/kg/injection, schedule: Q04DX003 (ip), vehicle: Klucel (hydroxypropylcellulose) (HPC)
[17] = dose: 400.0 mg/kg/injection, schedule: Q04DX003 (ip), vehicle: Klucel (hydroxypropylcellulose) (HPC)
[18] = dose: 400.0 mg/kg/injection, schedule: Q01DX001 (ip), vehicle: Klucel (hydroxypropylcellulose) (HPC)

Measured: T/C

Cc1cccc(C(C)(C)C#N)c1
inactive: dose: 50.0 mg/kg/injection, schedule: Q01DX009 (ip), vehicle: saline with Tween-80 92 % of control | [1] 101 % of control | [2] 90 % of control

Cc1cccc(C(O)C(=O)O)c1 (stereo unspecified)
inactive: dose: 75.0 mg/kg/injection, schedule: Q01DX001 (ip), vehicle: acetone 94 % of control | dose: 150.0 mg/kg/injection, schedule: Q01DX001 (ip), vehicle: acetone 92 % of control

CCC1(C)C(=O)N(Br)C(=O)N1Br (stereo unspecified)
inactive: dose: 50.0 mg/kg/injection, schedule: Q01DX009 (ip), vehicle: saline 91 % of control | dose: 50.0 mg/kg/injection, schedule: Q04DX003 (ip), vehicle: saline 100 % of control | [3] 106 % of control | dose: 100.0 mg/kg/injection, schedule: Q01DX009 (ip), vehicle: saline 95 % of control | [4] 105 % of control | [5] 102 % of control | dose: 200.0 mg/kg/injection, schedule: Q01DX009 (ip), vehicle: saline 95 % of control | [6] 97 % of control

Cc1cccc(Cl)c1NC(=O)Nc1cc(Cl)ccc1O
inactive: [7] 107 % of control | [8] 93 % of control | [9] 100 % of control

COc1ccc(-c2ccns2)cc1
inactive: [10] 93 % of control | [11] 92 % of control

O=C(Cc1ccccn1)NCCc1ccccc1
inactive: dose: 75.0 mg/kg/injection, schedule: Q01DX009 (ip), vehicle: saline 93 % of control | dose: 75.0 mg/kg/injection, schedule: Q04DX003 (ip), vehicle: saline 108 % of control | dose: 150.0 mg/kg/injection, schedule: Q01DX009 (ip), vehicle: saline 94 % of control | dose: 150.0 mg/kg/injection, schedule: Q04DX003 (ip), vehicle: saline 108 % of control | dose: 300.0 mg/kg/injection, schedule: Q04DX003 (ip), vehicle: saline 90 % of control

O=[N+]([O-])c1cccc(CNc2ccccc2)c1
inactive: dose: 100.0 mg/kg/injection, schedule: Q01DX001 (ip), vehicle: saline with Tween-80 98 % of control | dose: 200.0 mg/kg/injection, schedule: Q01DX001 (ip), vehicle: saline with Tween-80 95 % of control | dose: 400.0 mg/kg/injection, schedule: Q01DX001 (ip), vehicle: saline with Tween-80 93 % of control

COC(=O)C1C2C=CC(C3C=CC32)C1C(=O)OC (stereo unspecified)
inactive: dose: 100.0 mg/kg/injection, schedule: Q04DX002 (ip), vehicle: Klucel (hydroxypropylcellulose) (HPC) 103 % of control | dose: 200.0 mg/kg/injection, schedule: Q04DX002 (ip), vehicle: Klucel (hydroxypropylcellulose) (HPC) 97 % of control | dose: 400.0 mg/kg/injection, schedule: Q04DX002 (ip), vehicle: Klucel (hydroxypropylcellulose) (HPC) 103 % of control

CCC(C)NNCCO (stereo unspecified)
inactive: dose: 50.0 mg/kg/injection, schedule: Q01DX001 (ip), vehicle: saline 97 % of control | dose: 100.0 mg/kg/injection, schedule: Q01DX001 (ip), vehicle: saline 103 % of control | dose: 200.0 mg/kg/injection, schedule: Q01DX001 (ip), vehicle: saline 100 % of control

Nc1ccc2c(c1)/C(=N/O)c1cc(Cl)ccc1-2
inactive: [10] 109 % of control | [11] 103 % of control | dose: 400.0 mg/kg/injection, schedule: Q01DX001 (ip), vehicle: carboxymethylcellulose (CMC) 100 % of control

COC(=O)c1[nH]nc(-c2ccccc2)c1N
inactive: [12] 101 % of control | [13] 93 % of control | [14] 90 % of control

O=C1OCCN1S(=O)(=O)c1ccc(Cl)c(Cl)c1
inactive: [7] 87 % of control | [15] 100 % of control | [8] 97 % of control | [16] 105 % of control | [9] 90 % of control | [17] 101 % of control

O=C(O)c1cc2ccccc2oc1=O
inactive: dose: 10.0 mg/kg/injection, schedule: Q01DX009 (ip), vehicle: Klucel (hydroxypropylcellulose) (HPC) 101 % of control | [3] 95 % of control | [5] 97 % of control | [18] 98 % of control

C=CCNC(=S)Nc1cccc(OC(=O)NC2CCCCC2)c1
inactive: [7] 103 % of control | [8] 105 % of control | [9] 97 % of control

CC(=O)NC(O)C(Cl)(Cl)Cl (stereo unspecified)
inactive: dose: 100.0 mg/kg/injection, schedule: Q01DX009 (ip), vehicle: saline sonified 102 % of control | [12] 100 % of control | dose: 200.0 mg/kg/injection, schedule: Q01DX009 (ip), vehicle: saline sonified 95 % of control | [13] 96 % of control | dose: 400.0 mg/kg/injection, schedule: Q01DX009 (ip), vehicle: saline sonified 93 % of control | [14] 110 % of control

COc1cc2cc(C)c(I)cc2cc1OC
inactive: dose: 75.0 mg/kg/injection, schedule: Q04DX003 (ip), vehicle: Klucel (hydroxypropylcellulose) (HPC) 97 % of control | dose: 150.0 mg/kg/injection, schedule: Q04DX003 (ip), vehicle: Klucel (hydroxypropylcellulose) (HPC) 97 % of control | dose: 300.0 mg/kg/injection, schedule: Q04DX003 (ip), vehicle: Klucel (hydroxypropylcellulose) (HPC) 103 % of control

Oc1c(Cl)cc(Cl)cc1C=NCC1CCC(CN=Cc2cc(Cl)cc(Cl)c2O)CC1 (stereo unspecified)
inactive: [1] 92 % of control | [2] 92 % of control | dose: 400.0 mg/kg/injection, schedule: Q01DX009 (ip), vehicle: saline with Tween-80 94 % of control

COc1ccc(CCC(=O)c2ccccc2)cc1
inactive: dose: 50.0 mg/kg/injection, schedule: Q04DX003 (ip), vehicle: Klucel (hydroxypropylcellulose) (HPC) 98 % of control | [15] 104 % of control | [16] 107 % of control

C/C(=C\c1ccccc1)C(=O)c1ccc(-c2ccccc2)cc1
inactive: [7] 97 % of control | [15] 100 % of control | [8] 93 % of control | [16] 100 % of control | [9] 92 % of control | [17] 93 % of control

CCCCCCCCCCCCCCCCCCNC(=S)NN=C(NNC(=S)NCCCCCCCCCCCCCCCCCC)NNC(=S)NCCCCCCCCCCCCCCCCCC
inactive: dose: 15.0 mg/kg/injection, schedule: Q01DX Z (ip), vehicle: carboxymethylcellulose (CMC) 101 % of control | dose: 30.0 mg/kg/injection, schedule: Q01DX Z (ip), vehicle: carboxymethylcellulose (CMC) 111 % of control | dose: 60.0 mg/kg/injection, schedule: Q01DX Z (ip), vehicle: carboxymethylcellulose (CMC) 109 % of control and 114 % of control | dose: 120.0 mg/kg/injection, schedule: Q01DX Z (ip), vehicle: carboxymethylcellulose (CMC) 114 % of control | dose: 240.0 mg/kg/injection, schedule: Q01DX Z (ip), vehicle: carboxymethylcellulose (CMC) 111 % of control | dose: 480.0 mg/kg/injection, schedule: Q01DX Z (ip), vehicle: carboxymethylcellulose (CMC) 111 % of control

CCCc1nc2c(=O)[nH]cnc2o1
inactive: [12] 89 % of control | [13] 95 % of control | [14] 101 % of control

CN(CCCN1C(=O)c2ccccc2C1=O)c1ccc(NS(=O)(=O)c2ccc([N+](=O)[O-])cc2)cc1
inactive: [3] 100 % of control | [5] 103 % of control | [18] 97 % of control

O=Nc1c(O)[nH]c(=O)[nH]c1=O
inactive: [3] 95 % of control | [5] 106 % of control

CC(=O)OC1CCC2(C)C(=CCC3C2CCC2(C)C(C(C)C(N)=O)CCC32)C1 (stereo unspecified)
inactive: [3] 90 % of control and 91 % of control | [5] 94 % of control and 91 % of control | [18] 87 % of control and 100 % of control

O=C(O)c1cc(S(=O)(=O)Cl)cc(S(=O)(=O)Cl)c1
inactive: dose: 75.0 mg/kg/injection, schedule: Q01DX001 (ip), vehicle: saline 107 % of control

Cc1cc(C(=O)O)c(C(C)C)cc1C(=O)O
inactive: dose: 100.0 mg/kg/injection, schedule: Q04DX003 (ip), vehicle: other 101 % of control | dose: 200.0 mg/kg/injection, schedule: Q04DX003 (ip), vehicle: other 98 % of control | dose: 400.0 mg/kg/injection, schedule: Q04DX003 (ip), vehicle: other 92 % of control

CCOC(=O)c1c(C)oc(=O)c(Br)c1C
inactive: [4] 97 % of control | [6] 100 % of control | dose: 400.0 mg/kg/injection, schedule: Q04DX003 (ip), vehicle: saline 94 % of control
